# Data from the supplement of paper PMC10307832.
# Key:
# Experiment in all cases: relative viability (nuclei count vs DMSO), 5 days (fraction); higher = more cells survive
# Carboplatin + Trametinib = compound: C1CC(C1)(C(=O)O)C(=O)O.[NH2-].[NH2-].[Pt+2] [Carboplatin] + CC(=O)Nc1cccc(-n2c(=O)n(C3CC3)c(=O)c3c(Nc4ccc(I)cc4F)n(C)c(=O)c(C)c32)c1 [Trametinib] (partner 0.02 µM)
# Outline: (§1)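 Nuclei were stained with Hoechst during a one-step fixation (final 0.05% Triton X-100, 1% formaldehyde, 1 ug/ml Hoechst) carried out 5 days after dosing, then counted on 4× images. The cells, lung cancer lines in 1536-well plates, had been dosed by pin tool the day after seeding with one drug alone or a fixed anchor-drug dose plus five library-drug doses (not always all listed) in √10 steps. Relative viability is the nuclei count in treated wells divided by that in vehicle wells, and each value is the median of duplicate plates.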
# Carboplatin + Pemetrexed = compound: C1CC(C1)(C(=O)O)C(=O)O.[NH2-].[NH2-].[Pt+2] [Carboplatin] + Nc1nc2[nH]cc(CCc3ccc(C(=O)N[C@@H](CCC(=O)O)C(=O)O)cc3)c2c(=O)[nH]1 [Pemetrexed] (partner 0.2 µM)
# Outline: as §1
# MLN4924 + Alpelisib = compound: NS(=O)(=O)OC[C@@H]1C[C@@H](n2ccc3c(N[C@H]4CCc5ccccc54)ncnc32)C[C@@H]1O [MLN4924] + Cc1nc(NC(=O)N2CCC[C@H]2C(N)=O)sc1-c1ccnc(C(C)(C)C(F)(F)F)c1 [Alpelisib] (partner 2 µM)
# Outline: as §1
# MLN4924 + Decitabine = compound: NS(=O)(=O)OC[C@@H]1C[C@@H](n2ccc3c(N[C@H]4CCc5ccccc54)ncnc32)C[C@@H]1O [MLN4924] + Nc1ncn([C@H]2C[C@H](O)[C@@H](CO)O2)c(=O)n1 [Decitabine] (partner 2 µM)
# Outline: as §1
Cell Line,relative viability (Carboplatin + Trametinib; first compound 0.08 µM),relative viability (Carboplatin + Trametinib; first compound 0.253 µM),relative viability (Carboplatin + Trametinib; first compound 0.8 µM),relative viability (Carboplatin + Trametinib; first compound 2.53 µM),relative viability (Carboplatin + Trametinib; first compound 8 µM),relative viability (Carboplatin + Pemetrexed; first compound 0.08 µM),relative viability (Carboplatin + Pemetrexed; first compound 0.253 µM),relative viability (Carboplatin + Pemetrexed; first compound 0.8 µM),relative viability (Carboplatin + Pemetrexed; first compound 2.53 µM),relative viability (Carboplatin + Pemetrexed; first compound 8 µM),relative viability (MLN4924 + Alpelisib; first compound 0.04 µM),relative viability (MLN4924 + Alpelisib; first compound 0.1265 µM),relative viability (MLN4924 + Alpelisib; first compound 0.4 µM),relative viability (MLN4924 + Alpelisib; first compound 1.265 µM),relative viability (MLN4924 + Alpelisib; first compound 4 µM),relative viability (MLN4924 + Decitabine; first compound 0.04 µM),relative viability (MLN4924 + Decitabine; first compound 0.1265 µM),relative viability (MLN4924 + Decitabine; first compound 0.4 µM),relative viability (MLN4924 + Decitabine; first compound 1.265 µM),relative viability (MLN4924 + Decitabine; first compound 4 µM)
HCC-15,0.371,0.399,0.381,0.391,0.371,0.228,0.228,0.216,0.232,0.22,0.537,0.23,0.163,0.0818,0.0862,0.322,0.217,0.17,0.0917,0.111
NCI-H3122,0.227,0.259,0.251,0.251,0.226,0.198,0.202,0.189,0.191,0.183,0.799,0.452,0.251,0.188,0.133,0.423,0.264,0.2,0.14,0.125
201T,0.833,0.693,0.699,0.714,0.694,0.362,0.343,0.344,0.36,0.327,1.24,1.11,1.17,0.344,0.392,0.88,0.653,0.582,0.368,0.293
RERF-LC-KJ,0.863,0.876,0.785,0.696,0.53,0.492,0.475,0.479,0.458,0.438,0.89,0.815,0.206,0.183,0.237,0.592,0.497,0.24,0.182,0.236
NCI-H1734,0.69,0.718,0.659,0.637,0.501,0.423,0.422,0.495,0.408,0.419,0.947,0.95,0.246,0.139,0.118,0.514,0.472,0.197,0.141,0.135
NCI-H1651,0.851,0.77,0.826,0.771,0.711,0.702,0.61,0.552,0.534,0.56,1.11,0.961,0.793,0.362,0.168,0.578,0.586,0.46,0.216,0.146
PC-14,0.785,0.751,0.692,0.407,0.14,0.127,0.131,0.143,0.11,0.0992,0.929,0.904,0.826,0.177,0.0924,0.275,0.177,0.105,0.0656,0.104
NCI-H358,0.145,0.148,0.121,0.16,0.14,0.179,0.21,0.188,0.16,0.174,1.01,0.899,0.34,0.189,0.162,0.2,0.206,0.183,0.111,0.148
NCI-H1915,0.325,0.29,0.296,0.288,0.257,0.487,0.531,0.505,0.47,0.416,1.03,0.865,0.892,0.216,0.17,0.271,0.262,0.235,0.202,0.142
NCI-H1975,0.329,0.391,0.33,0.371,0.388,0.297,0.266,0.277,0.298,0.268,0.694,1.11,1.26,0.339,0.21,0.413,0.429,0.309,0.237,0.201
BEN,1.2,0.928,0.97,0.893,0.865,1.02,0.931,0.772,0.759,0.738,0.868,0.458,0.372,0.151,0.147,0.517,0.436,0.383,0.288,0.243
EPLC-272H,0.302,0.317,0.334,0.273,0.303,0.368,0.309,0.359,0.301,0.326,1.05,0.957,0.131,0.136,0.195,0.325,0.284,0.0744,0.108,0.106
NCI-H661,0.58,0.547,0.591,0.554,0.539,0.942,0.858,0.903,0.916,0.839,0.664,0.887,0.502,0.231,0.351,0.587,0.539,0.422,0.281,0.331
LU99A,0.602,0.634,0.537,0.55,0.418,0.174,0.157,0.188,0.18,0.16,0.418,0.244,0.299,0.173,0.153,0.595,0.298,0.341,0.176,0.14
NCI-H2405,0.752,0.661,0.635,0.633,0.606,1.16,1.03,1.05,0.977,0.737,1.02,0.933,0.517,0.196,0.215,0.659,0.483,0.406,0.28,0.28
NCI-H2009,0.346,0.295,0.243,0.249,0.238,1.04,0.983,1,0.958,0.654,0.987,0.791,0.299,0.151,0.114,0.342,0.289,0.218,0.174,0.118
